Results published in ChEMBL document CHEMBL5223086, “Recent Progress and Clinical Development of Inhibitors that Block MDM4/p53 Protein-Protein Interactions” (J Med Chem, 2021).
One block for each molecule: values may come before it. Peptide text beside a SMILES is read from it.

Legend:
[1] = biological target: T1, Tumour suppressor protein p53/Mdm4 (Homo sapiens, UniProt O15151+P04637); test: Inhibition of human MDM4/p53 interaction by TR-FRET assay; format: protein assay
[2] = biological target: T2, Protein Mdm4 (Homo sapiens, UniProt O15151); test: Inhibition of human MDM4 by TR-FRET assay
T2 sequence (O15151 whole entry): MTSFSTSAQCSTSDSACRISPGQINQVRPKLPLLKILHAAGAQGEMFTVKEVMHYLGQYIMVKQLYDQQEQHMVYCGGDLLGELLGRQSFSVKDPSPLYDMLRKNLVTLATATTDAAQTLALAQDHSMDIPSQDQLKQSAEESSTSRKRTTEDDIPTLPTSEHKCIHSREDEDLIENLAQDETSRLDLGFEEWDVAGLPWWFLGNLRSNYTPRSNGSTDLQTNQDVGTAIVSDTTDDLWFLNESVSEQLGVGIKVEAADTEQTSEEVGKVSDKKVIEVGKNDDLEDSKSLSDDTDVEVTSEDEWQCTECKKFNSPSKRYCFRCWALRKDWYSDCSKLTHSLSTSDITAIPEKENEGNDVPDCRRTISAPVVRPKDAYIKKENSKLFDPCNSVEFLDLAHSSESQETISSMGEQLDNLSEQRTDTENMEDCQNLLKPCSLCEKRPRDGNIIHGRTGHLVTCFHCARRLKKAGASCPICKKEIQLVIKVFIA

[3] = biological target: T3, E3 ubiquitin-protein ligase Mdm2 (Homo sapiens, UniProt Q00987); test: Inhibition of human MDM2 by TR-FRET assay
[4] = biological target: T1, Tumour suppressor protein p53/Mdm4; test: Inhibition of human MDM4/p53 interaction by FP assay; format: protein assay
[5] = biological target: T2, Protein Mdm4; test: Binding affinity to human MDM4 assessed as inhibition constant
[6] = biological target: T3, E3 ubiquitin-protein ligase Mdm2; test: Binding affinity to human MDM2 assessed as dissociation constant
[7] = tested on: MCF7; test: Anticancer activity against […] relative to contol; format: functional; settings: read-out: TGI
[8] = biological target: T2, Protein Mdm4; test: Inhibition of human his-tagged MDM4 assessed as dissociation constant by ITC assay
[9] = biological target: T2, Protein Mdm4; test: Inhibition of human MDM4
[10] = biological target: T3, E3 ubiquitin-protein ligase Mdm2; test: Inhibition of human MDM2
[11] = biological target: T1, Tumour suppressor protein p53/Mdm4; test: Inhibition of human MDM4/p53 interaction by SPR analysis; format: protein assay
[12] = biological target: T2, Protein Mdm4; test: Inhibition of MDM4 assessed as dissociation constant
[13] = tested on: MCF7; test: Anticancer activity against human MCF7 cells assessed as cell viability at 30 mg/kg by MTT assay relative to contol; settings: MCF7, read-out: TGI
[14] = biological target: T2, Protein Mdm4; test: Inhibition of human MDM4 by ELISA assay

T1 sequence (P04637 whole entry, one chain of several): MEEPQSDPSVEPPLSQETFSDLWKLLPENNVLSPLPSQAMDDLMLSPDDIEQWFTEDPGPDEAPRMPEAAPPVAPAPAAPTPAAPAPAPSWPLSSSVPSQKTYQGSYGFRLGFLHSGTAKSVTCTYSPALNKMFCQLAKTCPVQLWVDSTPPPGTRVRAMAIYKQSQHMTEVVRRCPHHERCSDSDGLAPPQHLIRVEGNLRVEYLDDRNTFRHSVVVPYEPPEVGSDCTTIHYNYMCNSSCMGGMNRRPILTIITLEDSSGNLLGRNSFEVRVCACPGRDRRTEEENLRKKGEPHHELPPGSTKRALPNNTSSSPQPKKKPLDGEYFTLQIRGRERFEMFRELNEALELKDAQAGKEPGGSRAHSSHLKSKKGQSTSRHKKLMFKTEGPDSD
T3 sequence (Q00987 whole entry): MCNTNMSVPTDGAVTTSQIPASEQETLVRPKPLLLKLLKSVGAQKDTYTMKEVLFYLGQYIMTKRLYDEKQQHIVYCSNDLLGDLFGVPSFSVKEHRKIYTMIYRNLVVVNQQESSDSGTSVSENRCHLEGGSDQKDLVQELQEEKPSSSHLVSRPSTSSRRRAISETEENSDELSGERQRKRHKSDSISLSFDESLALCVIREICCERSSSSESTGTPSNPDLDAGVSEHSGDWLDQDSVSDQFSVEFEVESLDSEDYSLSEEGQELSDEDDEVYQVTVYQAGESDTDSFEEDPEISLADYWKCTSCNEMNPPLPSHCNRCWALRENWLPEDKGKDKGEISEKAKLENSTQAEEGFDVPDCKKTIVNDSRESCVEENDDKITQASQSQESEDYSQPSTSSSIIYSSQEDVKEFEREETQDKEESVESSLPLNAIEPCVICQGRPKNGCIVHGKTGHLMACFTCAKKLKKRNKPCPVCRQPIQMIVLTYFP

Molecule: COc1nc(N(C)C)ncc1-c1nc2c(n1C(C)C)[C@H](c1ccc(C#N)cc1)N(c1cc(Cl)cn(C)c1=O)C2=O
IC50 [1]: 1.3 µM

Molecule: COc1ncc(-c2nc3c(n2C(C)C)C(c2ccc(Cl)cc2)N(c2cc(Cl)cn(C)c2=O)C3=O)c(OC)n1 (stereo unspecified)
IC50 [5]: 3 µM

Molecule: O=C(CN(Cc1ccc(Cl)cc1)C(=O)c1cc2ccccc2[nH]1)NC1CCCCC1
Ki [6]: 5.5 µM

Molecule: CCOc1cc(C(C)(C)C)ccc1C1=N[C@@](C)(c2ccc(Cl)cc2)[C@@](C)(c2ccc(Cl)cc2)N1C(=O)N1CCN(CCCS(C)(=O)=O)CC1 [RO-5045337]
inhibition in vivo [7]: 61%

Molecule: CC(C)(C)Oc1cc(C(=O)CC(N)=O)ccc1C1=N[C@@H](c2ccc(C(=O)O)cc2)[C@@H](c2c[nH]c3ccccc23)N1C(=O)N1CCNC(=O)C1
Kd [8]: 0.027 µM

Molecule: COOc1cc(/C=C2\C(=O)N(c3ccccc3)N=C2C)cc(Cl)c1OCC(=O)OC
EC50 [9]: 2.3 µM
EC50 [10]: 26 µM

Molecule: CC(C)C[C@H](NC(=O)[C@H](CS)NC(=O)[C@H](CCCNC(=N)N)NC(=O)[C@H](Cc1c[nH]c2ccccc12)NC(=O)[C@H](Cc1ccc(O)cc1)NC(=O)[C@H](CS)NC(=O)[C@H](CC(C)C)NC(=O)[C@H](Cc1ccccc1)NC(=O)[C@@H](NC(=O)[C@H](CCC(=O)O)NC(=O)[C@@H]1CCCN1C(=O)[C@H](C)NC(=O)[C@H](CCCCN)NC(=O)[C@H](CS)NC(=O)[C@H](CC(N)=O)NC(=O)[C@@H](N)CS)[C@@H](C)O)C(=O)N[C@@H](CCC(N)=O)C(=O)N[C@@H](Cc1c[nH]cn1)C(N)=O (H-CNCKAPETFLCYWRCLQH-NH2)
IC50 [11]: 0.0114 µM

Molecule: COc1cc(C(=O)O)ccc1NC(=O)[C@@H]1N[C@@H](CC(C)(C)C)[C@](C#N)(c2ccc(Cl)cc2F)[C@H]1c1cccc(Cl)c1F [IDASANUTLIN]
Kd [12]: < 0.1 µM

Molecule: CC(=O)N[C@@H](CC(C)C)C(=O)N[C@H](C(=O)N[C@@H](Cc1ccccc1)C(=O)N[C@]1(C)CCCCCC/C=C/CCC[C@@](C)(C(=O)N[C@@H](C)C(=O)N[C@@H](C)C(=O)N[C@@H](C)C(=O)N[C@@H](C)C(=O)N[C@H](C)C(N)=O)NC(=O)[C@H](CC(C)C)NC(=O)[C@H](CCC(N)=O)NC(=O)[C@H](C)NC(=O)[C@H](Cc2c[nH]c3ccccc23)NC(=O)[C@H](Cc2ccc(O)cc2)NC(=O)[C@H](C)NC1=O)[C@@H](C)O
inhibition in vivo at 30 mg/kg [13]: 61%

Molecule: H-ETFEHWWSQLLS-OH
IC50 [14]: 0.11 µM

Next, values leading:

IC50 [1]: 0.58 µM
Molecule: COc1ncc(-c2nc3c(n2C(C)C)[C@H](c2ccc(C#N)cc2)N([C@@H](C)c2cccc(Cl)c2)C3=O)c(OC)n1

IC50 [2]: 0.145 µM
Molecule: C[C@@H](c1cccc(Cl)c1)n1cnc(-c2ccccc2)c1-c1c(C(=O)NCCN2CCN(C3CCCCC3)CC2)[nH]c2cc(Cl)ccc12

IC50 [3]: > 50 µM
Molecule: COc1cccc2c(C(=O)N[C@H]3CCN(c4ccc(C)cc4)C3)c[nH]c12

Ki [4]: 3.73 µM
Molecule: Cc1cc(Cl)ccc1NCc1ccc(CN(C=O)C(C(=O)NC(C)(C)C)c2c(C(=O)O)[nH]c3cc(Cl)ccc23)cc1 (stereo unspecified)

IC50 [2]: 0.017 µM
Molecule: C[C@@H](c1cccc(Cl)c1)n1cnc(-c2ccccc2)c1-c1c(C(=O)Nc2cc(C(=O)O)ccc2N2CCC(N3CCCOC3=O)CC2)[nH]c2cc(Cl)ccc12
